Read-outs that look alike come from different tables or passages of the source.
Assays:
human DGKα = biological target: T1, human DGKα (Homo sapiens, UniProt P23743); assay: DGKα LIPGLO assay (extruded liposome substrate), in vitro DGK inhibition; assay type: biochemical; conditions: read-out: DGKa LIPGLO IC50
T1 construct: TVMV protease cleavage site (C); Hexa-His (C); made in house; host or cells: Sf9 insect cells (baculovirus, Bac-to-Bac)

human DGKζ = biological target: T2, human DGKζ (Homo sapiens, UniProt Q13574); assay: DGKζ LIPGLO assay (extruded liposome substrate), in vitro DGK inhibition; assay type: biochemical; conditions: read-out: DGKz LIPGLO IC50
T2 construct: TVMV protease cleavage site (C); Hexa-His (C); made in house; host or cells: Sf9 insect cells (baculovirus, Bac-to-Bac)

Human venous whole blood = assay: Human whole blood IFN-γ assay; assay type: cell-based; conditions: human whole blood, read-out: INFg Whole Blood Normalized Agonist EC50;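 note: blood from healthy donors exposed to compound for 1 h before stimulation with anti-CD3 and anti-CD28 at 1 µg/mL each, IFN-γ quantified in supernatant by AlphaLISA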
Description: Human Whole Blood IFN-γ Assay
Human venous whole blood (22.5 μL per well), obtained from healthy donors, was pre-treated with compounds for one hour at 37° C. in a humidified 95% air/5% CO2 incubator. The blood was stimulated with 2.5 μL anti-human CD3 and anti-CD28 mAb at a final concentration of 1 μg/mL each for 24 hours at 37° C. IFN-γ in the supernatants was measured using AlphLISA kit (Cat # AL217).

[1] = normalized to 3 μM reference compound with anti-CD3 plus anti-CD28 as 100% activation
[2] = anti-CD3 plus anti-CD28, 24 hours, 3 μM reference compound = 100% activation
[3] = Homo sapiens, 24 h, normalized to 3 μM reference compound with anti-CD3 plus anti-CD28 as 100% activation
[4] = Homo sapiens, 24 h, anti-CD3 plus anti-CD28, 24 hours, 3 μM reference compound = 100% activation

T1 sequence (P23743 with tags, fused parts or gaps): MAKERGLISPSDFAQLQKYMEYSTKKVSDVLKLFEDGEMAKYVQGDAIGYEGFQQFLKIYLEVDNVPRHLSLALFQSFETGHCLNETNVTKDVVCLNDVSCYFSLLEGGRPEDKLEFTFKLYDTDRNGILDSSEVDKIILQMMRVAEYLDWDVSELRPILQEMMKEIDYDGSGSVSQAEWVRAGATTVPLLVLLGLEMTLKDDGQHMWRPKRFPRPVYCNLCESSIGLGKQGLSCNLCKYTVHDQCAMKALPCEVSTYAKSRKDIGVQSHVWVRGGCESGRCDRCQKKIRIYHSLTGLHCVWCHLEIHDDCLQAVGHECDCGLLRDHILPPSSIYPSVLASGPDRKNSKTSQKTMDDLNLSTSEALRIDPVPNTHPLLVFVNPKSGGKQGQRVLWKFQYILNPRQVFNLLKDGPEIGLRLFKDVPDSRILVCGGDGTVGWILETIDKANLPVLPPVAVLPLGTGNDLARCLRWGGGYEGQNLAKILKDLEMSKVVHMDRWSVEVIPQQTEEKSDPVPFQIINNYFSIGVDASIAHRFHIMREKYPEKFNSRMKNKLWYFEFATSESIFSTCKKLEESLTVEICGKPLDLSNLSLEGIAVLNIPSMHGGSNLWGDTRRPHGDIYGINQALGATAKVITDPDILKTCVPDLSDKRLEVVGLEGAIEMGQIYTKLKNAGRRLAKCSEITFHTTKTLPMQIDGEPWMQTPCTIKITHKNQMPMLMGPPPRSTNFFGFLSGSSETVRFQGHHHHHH
T2 sequence (Q13574 with tags, fused parts or gaps isoform Q13574-4): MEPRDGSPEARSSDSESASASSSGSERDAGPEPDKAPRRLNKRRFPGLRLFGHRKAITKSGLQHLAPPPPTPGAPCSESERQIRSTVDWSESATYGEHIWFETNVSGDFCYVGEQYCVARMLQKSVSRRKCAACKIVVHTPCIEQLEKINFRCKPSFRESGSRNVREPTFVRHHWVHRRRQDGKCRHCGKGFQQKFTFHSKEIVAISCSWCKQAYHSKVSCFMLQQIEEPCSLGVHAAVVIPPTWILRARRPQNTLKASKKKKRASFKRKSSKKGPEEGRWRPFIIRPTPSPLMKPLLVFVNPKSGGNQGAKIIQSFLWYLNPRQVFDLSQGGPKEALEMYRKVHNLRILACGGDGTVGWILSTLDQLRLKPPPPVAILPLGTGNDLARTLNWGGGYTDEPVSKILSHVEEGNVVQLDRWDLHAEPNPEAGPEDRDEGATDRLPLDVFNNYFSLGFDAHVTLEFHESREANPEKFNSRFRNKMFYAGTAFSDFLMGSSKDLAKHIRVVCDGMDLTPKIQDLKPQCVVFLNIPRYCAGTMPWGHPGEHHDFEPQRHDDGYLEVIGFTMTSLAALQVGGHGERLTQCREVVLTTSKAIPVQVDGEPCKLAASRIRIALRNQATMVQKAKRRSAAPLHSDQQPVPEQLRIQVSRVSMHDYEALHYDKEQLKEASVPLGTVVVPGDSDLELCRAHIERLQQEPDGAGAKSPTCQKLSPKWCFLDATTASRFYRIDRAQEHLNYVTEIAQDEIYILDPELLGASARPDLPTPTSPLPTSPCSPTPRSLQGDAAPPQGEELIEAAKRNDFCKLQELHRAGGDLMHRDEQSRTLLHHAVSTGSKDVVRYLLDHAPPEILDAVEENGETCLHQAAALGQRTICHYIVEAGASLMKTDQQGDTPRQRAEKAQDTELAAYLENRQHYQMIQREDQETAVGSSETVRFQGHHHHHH

| SMILES | IC50 (human DGKα; liposome (LIPGLO) assay) [nM] | IC50 (human DGKζ; liposome (LIPGLO) assay) [nM] | EC50 (Human venous whole blood; [1]) [nM] | IC50 (human DGKα; DGKα liposome (LIPGLO) assay) [nM] | IC50 (human DGKζ; DGKζ liposome (LIPGLO) assay) [nM] | EC50 (Human venous whole blood; [2]) [nM] | EC50 (Human venous whole blood; [3]) [nM] | EC50 (Human venous whole blood; [4]) [nM] |
| --- | --- | --- | --- | --- | --- | --- | --- | --- |
| COc1ccc(C(C)N2C[C@H](C)N(c3cc(=O)n(C)c4ccc(C#N)nc34)C[C@H]2C)nc1 (single isomer, unassigned) [Example 645] | 1900 | 18000 | 17000 |  |  |  |  |  |
| COC(=O)C1CN(c2cc(=O)n(C)c3ccc(C#N)nc23)CCN1C(c1ccc(Cl)cc1)c1ccc(Cl)cc1 (single isomer, unassigned) [Example 96, methyl 1-(bis(4-chlorophenyl)methyl)-4-(6-cyano-1-methyl-2-oxo-1,2-dihydro-1,5-naphthyridin-4-yl)piperazine-2-carboxylate] | 240000 | 14000 | 13000 |  |  |  |  |  |
| CC[C@H]1CN(C(C)c2cc(F)cc(OC(F)(F)F)c2)[C@H](C)CN1c1cc(=O)n(C)c2ccc(C#N)nc12 (stereo partly drawn) [Example 1385] | 5900 | 700 | 5300 |  |  |  |  |  |
| C[C@@H]1CN(c2c(C#N)c(=O)n(C)c3ccc(C#N)nc23)[C@@H](C)CN1C(c1ccccc1)c1ccc(Cl)cc1 (stereo partly drawn) [Example 835] |  |  |  | 11000 | 11000 | 20000 |  |  |
| CC[C@@H]1CN(c2cc(=O)n(C)c3ccc(C#N)nc23)[C@@H](C)CN1C(C)c1ccc(C(F)(F)F)cc1F (single isomer, unassigned) [Example 1086] | 6200 | 2100 | 2500 |  |  |  |  |  |
| CC[C@@H]1CN(c2cc(=O)n(C)c3ccc(C#N)nc23)[C@@H](C)CN1Cc1ccc(OC(F)(F)F)c(F)c1 [Example 1332] | 530 | 610 |  |  |  |  | 4400 |  |
| CC[C@@H]1CN(c2cc(=O)n(C)c3ccc(C#N)nc23)[C@@H](C)CN1Cc1ccc(OC(F)F)cc1 [Example 1330, 8-((2S,5R)-4-(4-(difluoromethoxy)benzyl)-5-ethyl-2-methylpiperazin-1-yl)-5-methyl-6-oxo-5,6-dihydro-1,5-naphthyridine-2-carbonitrile] | 44 | 380 |  |  |  |  | 1500 |  |
| CC(c1ccccn1)N1CCN(c2c(C#N)c(=O)n(C)c3ccc(C#N)nc23)C[C@H]1C (single isomer, unassigned) [Example 963] |  |  |  | 1400 | 180000 |  |  | 20000 |
| C[C@@H]1CN(c2cc(=O)n(C)c3ccc(C#N)nc23)[C@@H](C)CN1C(c1ccc(F)cc1)c1cccc(C(F)(F)F)n1 (stereo partly drawn) [Example 679] | 5400 | 720 | 1300 |  |  |  |  |  |
| COCC(c1ccc(F)cc1)N1C[C@H](C)N(c2cc(=O)n(C)c3ccc(C#N)nc23)C[C@H]1C (single isomer, unassigned) [Example 559] | 65 | 2700 |  |  |  |  | 270 |  |
| C[C@@H]1CN(c2cc(=O)n(C)c3ccc(C#N)nc23)[C@@H](C)CN1C(c1ccc(F)cc1)c1cnc(C2CC2)s1 (single isomer, unassigned) [Example 728] |  |  |  | 63 | 44 | 920 |  |  |
| CC[C@H]1CN(C(c2ccc(F)cc2)c2ccon2)[C@H](CC)CN1c1cc(=O)n(C)c2ccc(C#N)nc12 (single isomer, unassigned) [Example 1072] | 100 | 750 | 770 |  |  |  |  |  |
| CC[C@H]1CN(C(C)c2ccc(C3CC3)cc2)[C@H](CC)CN1c1cc(=O)n(C)c2ccc(C#N)nc12 (single isomer, unassigned) [Example 1355] | 62 | 33 | 28 |  |  |  |  |  |
| COC[C@H]1CN(c2cc(=O)n(C)c3ccc(C#N)nc23)[C@H](C)CN1C(c1ccc(F)cc1)c1ccc(F)cc1 [Example 1183, 8-((2R,5R)-4-(bis(4-fluorophenyl)methyl)-5-(methoxymethyl)-2-methylpiperazin-1-yl)-5-methyl-6-oxo-5,6-dihydro-1,5-naphthyridine-2-carbonitrile] | > 250000 | 8900 |  |  |  |  | 9200 |  |
| CCC(c1cc(OC(F)(F)F)ccc1F)N1C[C@H](C)N(c2cc(=O)n(C)c3ccc(C#N)nc23)C[C@H]1C (stereo partly drawn) [Example 1207] | 14000 | 1400 | 13000 |  |  |  |  |  |
| CC(c1c(F)cccc1F)N1C[C@H](C)N(c2c(C#N)c(=O)n(C)c3ccc(C#N)nc23)C[C@H]1C (single isomer, unassigned) [Example 781] |  |  |  | 74 | 120 |  |  | 830 |
| CC[C@@H]1CN(c2cc(=O)n(C)c3ccc(C#N)nc23)[C@@H](C)CN1C(C)c1ccc(F)c(F)c1 (single isomer, unassigned) [Example 1092] | 3700 | 4000 | 3200 |  |  |  |  |  |
| CC(C)c1noc(C(c2ccc(F)cc2)N2C[C@H](C)N(c3cc(=O)n(C)c4ccc(C#N)nc34)C[C@H]2C)n1 (single isomer, unassigned) [Example 748] |  |  |  | 54 | 220 | 410 |  |  |
| C[C@@H]1CN(c2cc(=O)n(C)c3ccc(C#N)nc23)[C@@H](C)CN1C(c1ccc(F)cc1)c1ncno1 (stereo partly drawn) [Example 755] |  |  |  | 2600 | 61000 |  |  | 18000 |

| SMILES | IC50 (human DGKα; liposome (LIPGLO) assay) [nM] | IC50 (human DGKζ; liposome (LIPGLO) assay) [nM] | EC50 (Human venous whole blood; [1]) [nM] | IC50 (human DGKα; DGKα liposome (LIPGLO) assay) [nM] | IC50 (human DGKζ; DGKζ liposome (LIPGLO) assay) [nM] | EC50 (Human venous whole blood; [2]) [nM] | EC50 (Human venous whole blood; [3]) [nM] | EC50 (Human venous whole blood; [4]) [nM] |
| --- | --- | --- | --- | --- | --- | --- | --- | --- |
| CC[C@H]1CN(C(C)c2cc(F)cc(OC(F)(F)F)c2)[C@H](C)CN1c1cc(=O)n(C)c2ccc(C#N)nc12 (stereo partly drawn) [Example 1384] | 9400 | 260 |  |  |  |  | 8000 |  |
| CC(c1cc(F)cc(OC(F)(F)F)c1)N1C[C@H](C)N(c2cc(=O)n(C)c3ccc(C#N)nc23)C[C@H]1C (single isomer, unassigned) [Example 1210] | 9300 | 18 | 880 |  |  |  |  |  |
| COC(=O)c1cccc(C(C)N2C[C@H](C)N(c3c(C#N)c(=O)n(C)c4ccc(C#N)nc34)C[C@H]2C)c1 (single isomer, unassigned) [Example 796] |  |  |  | 240000 | 2200 | 20000 |  |  |
| C[C@@H]1CN(c2c(C#N)c(=O)n(C)c3ccc(C#N)nc23)CCN1C(c1ccc(F)cc1)c1cn(C)cn1 (single isomer, unassigned) [Example 1027] | 29000 | 2200 | 7300 |  |  |  |  |  |
| CC[C@H]1CN(C(C)c2ccc(C(F)(F)F)cc2)[C@H](CC)CN1c1cc(=O)n(C)c2ccc(C#N)nc12 (single isomer, unassigned) [Example 1051] | 270 | 210 | 42 |  |  |  |  |  |
| C[C@@H]1CN(c2cc(=O)n(C)c3ccc(C#N)nc23)[C@@H](C)CN1C(c1ccc(F)cc1)c1nc(C2CC2)co1 (single isomer, unassigned) [Example 777] |  |  |  | 68 | 750 |  |  | 770 |
| CC[C@H]1CN(C(c2ccc(F)cc2)c2ccc(C(F)(F)F)cn2)[C@H](C)CN1c1cc(=O)n(C)c2ccc(C#N)nc12 (single isomer, unassigned) [Example 1132] | 620 | 790 | 1600 |  |  |  |  |  |
| CC(c1ccc(P(C)(C)=O)cc1)N1C[C@H](C)N(c2cc(=O)n(C)c3ccc(C#N)nc23)C[C@H]1C (stereo partly drawn) [Example 1291] | 97000 | 96000 | 20000 |  |  |  |  |  |
| CC(c1ccc(F)cc1F)N1CCN(c2c(C#N)c(=O)n(C)c3ccc(C#N)nc23)C[C@H]1C (single isomer, unassigned) [Example 970] |  |  |  | 870 | 28000 | 11000 |  |  |
| CC[C@H]1CN(C(C)c2ccc(OC)cc2)[C@H](CC)CN1c1cc(=O)n(C)c2ccc(C#N)nc12 (single isomer, unassigned) [Example 1367] | 170 | 2900 | 1900 |  |  |  |  |  |
| C[C@@H]1CN(c2cc(=O)n(C)c3ccc(C#N)nc23)[C@@H](C)CN1C(c1ccc(F)cn1)c1cccc2c1OC(C)(C)C2 (single isomer, unassigned) [Example 467] | 980 | 450 | 20000 |  |  |  |  |  |
| CC(C)Oc1ccc(C(c2cccc(F)c2)N2C[C@H](C)N(c3cc(=O)n(C)c4ccc(C#N)nc34)C[C@H]2C)nc1 (stereo partly drawn) [Example 690] | 1500 | 390 |  |  |  |  | 3500 |  |
| CC[C@@H]1CN(c2cc(=O)n(C)c3ccc(C#N)nc23)[C@@H](C)CN1C(c1ccc(F)cc1)c1ccc(Cl)cc1 (stereo partly drawn) [Example 1101] | 350 | 240 | 230 |  |  |  |  |  |
| C[C@@H]1CN(c2cc(=O)n(C)c3ccc(C#N)nc23)[C@@H](C)CN1C(c1ccc(F)cc1)c1ccc(C(F)(F)F)cn1 (single isomer, unassigned) [Example 681] | 100 | 350 | 270 |  |  |  |  |  |
| C[C@@H]1CN(c2cc(=O)n(C)c3ccc(C#N)nc23)[C@@H](C)CN1C(c1ccc(Cl)cc1)c1ccncn1 (single isomer, unassigned) [Example 396] | 1300 | 3600 |  |  |  |  | 190 |  |
| CSCC(c1ccc(F)cc1)N1C[C@H](C)N(c2cc(=O)n(C)c3ccc(C#N)nc23)C[C@H]1C (single isomer, unassigned) [Example 1318] | 6.2 | 34 |  |  |  |  | 88 |  |
| COc1ccc(C(C)N2C[C@H](C)N(c3cc(=O)n(C)c4ccc(C#N)nc34)C[C@H]2C)cc1C(F)(F)F (stereo partly drawn) [Example 1250] | 20000 | 1700 | 18000 |  |  |  |  |  |
| CC[C@@H]1CN(c2cc(=O)n(C)c3ccc(C#N)nc23)[C@@H](C)CN1C(c1ccc(F)cc1)c1nc(C2CC2)cs1 (single isomer, unassigned) [Example 1338] | 69 | 29 |  |  |  |  | 130 |  |
